Data set [1] can be described thus: ABTS radical scavenging activity assessed as Trolox equivalent antioxidant capacity. The class given is physicochemical.
A further data set deals with Liver microsomes. The data set is described as follows: Antioxidant activity in Wistar rat liver microsomes assessed as inhibition of lipid peroxidation by TBA assay. The class given is functional, Microsome.

In general, IC50 refers to the concentration at which inhibition is half-maximal. For `Oc1cc(O)c2c(c1)O[C@H](c1ccc(O)c(O)c1)[C@H](O)C2` [(-)-EPICATECHIN], the Activity in data set [1] came to 0.99 mmol/L. Also, the IC50 in the data set on Liver microsomes came out at 25 µM.
Regarding `O=c1cc(-c2ccc(O)cc2)oc2cc(O)cc(O)c12` [APIGENIN], the IC50 in the data set with Liver microsomes was 100 µM.
Regarding `O=C(O)/C=C/c1ccc(O)c(O)c1` [CAFFEIC ACID], the Activity in data set [1] is 1.01 mmol/L.
Regarding `Oc1cc(O)c2c(c1)OC(c1ccc(O)c(O)c1)C(O)C2` (stereo not drawn) [CATECHIN], in the data set on Liver microsomes, the IC50 was 51 µM.
`Oc1cc(O)c2c(c1)O[C@H](c1ccc(O)c(O)c1)[C@@H](O)C2` [CATECHIN]: in data set [1], the Activity amounted to 0.57 mmol/L.
Regarding `COc1cc(/C=C/C(=O)O)ccc1O` [FERULATE], the Activity in data set [1] was found to be 0.23 mmol/L.
As for `O=C(O)c1cc(O)c(O)c(O)c1` [GALLIC ACID], the Activity in data set [1] is reported as 1.98 mmol/L.
For the compound `O=c1c(O)c(-c2ccc(O)cc2)oc2cc(O)cc(O)c12` [KAEMPFEROL], the Activity in data set [1] was 0.79 mmol/L. Besides, in the data set with Liver microsomes, the IC50 was found to be 19 µM.
In the case of `O=c1c(O)c(-c2ccc(O)cc2O)oc2cc(O)cc(O)c12` [MORIN], the Activity in data set [1] worked out at 0.83 mmol/L. For the same compound, in the data set with Liver microsomes, the IC50 came to 23 µM.
On the same counts, the results for `O=c1c(O)c(-c2cc(O)c(O)c(O)c2)oc2cc(O)cc(O)c12` [MYRICETIN] are 1.02 mmol/L and 10.5 µM.
Turning to `O=C1C[C@@H](c2ccc(O)cc2)Oc2cc(O)cc(O)c21` [NARINGENIN], the half-inhibitory concentration (IC50) in the data set with Liver microsomes worked out at 100 µM.
With `O=c1c(O)c(-c2ccc(O)c(O)c2)oc2cc(O)cc(O)c12` [QUERCETIN], the Activity in data set [1] came out at 1.14 mmol/L. For the same compound, the IC50 in the data set on Liver microsomes was found to be 8.5 µM.
Turning to `Oc1ccc(/C=C/c2cc(O)cc(O)c2)cc1` [RESVERATROL], in data set [1], the Activity was determined as 0.4 mmol/L.

The record behind these values is ChEMBL document CHEMBL1152838, “QSAR study of antioxidant activity of wine polyphenols” (Eur J Med Chem, 2009).
